# Assay results reported in PMC9856072, “Complexed Crystal Structure of the Dihydroorotase Domain of Human CAD Protein with the Anticancer Drug 5-Fluorouracil” (Biomolecules, 2023).
# Numbering of substitutions follows the chain as printed.
# Tests used:
# Format in all cases: binding
# [1] = target: T1, dihydroorotase domain of human CAD (huDHOase) (Homo sapiens, UniProt P27708, T1562A); experiment: intrinsic fluorescence quenching titration
# T1 construct: residues 1456–1846 in human CAD protein, C-terminal His tag
# T1 sequence (P27708 1456-1846 T1562A): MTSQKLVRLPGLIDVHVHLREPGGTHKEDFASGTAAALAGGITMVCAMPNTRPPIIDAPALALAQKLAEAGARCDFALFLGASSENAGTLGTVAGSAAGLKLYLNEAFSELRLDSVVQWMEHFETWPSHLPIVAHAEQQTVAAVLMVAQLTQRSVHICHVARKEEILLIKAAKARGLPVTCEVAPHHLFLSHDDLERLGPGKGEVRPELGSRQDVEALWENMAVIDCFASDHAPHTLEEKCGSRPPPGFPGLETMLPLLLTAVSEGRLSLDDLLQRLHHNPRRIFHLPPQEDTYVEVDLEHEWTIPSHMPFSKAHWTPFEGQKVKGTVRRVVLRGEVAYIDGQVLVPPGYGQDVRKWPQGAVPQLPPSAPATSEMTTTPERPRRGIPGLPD
# [2] = target: T2, dihydroorotase domain of human CAD (huDHOase) (Homo sapiens, UniProt P27708); experiment: co-crystal structure ([…] Å) and intrinsic fluorescence quenching
# T2 construct: residues 1456–1846 in human CAD protein, C-terminal His tag
# T2 sequence (P27708 1456-1846): T1 sequence (P27708 1456-1846 T1562A) with A107T
# [3] = target: T3, dihydroorotase domain of human CAD (huDHOase) (Homo sapiens, UniProt P27708, R1475A); experiment: intrinsic fluorescence quenching titration
# T3 construct: residues 1456–1846 in human CAD protein, C-terminal His tag
# T3 sequence (P27708 1456-1846 R1475A): T1 sequence (P27708 1456-1846 T1562A) with R20A, A107T
# [4] = target: T2, dihydroorotase domain of human CAD (huDHOase); experiment: co-crystal structure ([…] Å)
Structure (SMILES),Kd [1],Kd [2],Kd [3],co-crystal structure (1.64 Å) [4]
"O=c1[nH]cc(F)c(=O)[nH]1 [5-FU, 5-fluorouracil]",146 ± 2.1 µM,91.2 ± 1.7 µM,161.5 ± 1.6 µM,
O=C(O)CC(O)C(=O)O (stereo not shown) [malate],,,,This complexed structure revealed that malate is bound at the active site of huDHOase
